In patent publication US6770287B1, “Biocidal cellulosic material” (The Regents of the University of California, priority 2000, dated 2004):

Experiments:
S. aureus [1] = assay: AATCC Test Method 147 qualitative antibacterial test (inhibition zone); assay type: cell-based, Staphylococcu aureus (ATCC 5368)
Description: Fabric samples of #405 (pure cotton, Testfabrics, Inc., Middlesex, N.J.) and # 7402 (cotton/polyester 35/65, Testfabrics, Inc., Middlesex, N.J.) were finished in a manner similar to that set forth in Example I. The concentration of the finishing agent used was from about 5 to 15% in the finishing of the cotton fabrics and from about 5 to 20% in the finishing of the cotton/polyester (35/65) blend fabric because of the lower concentration of cellulose in the blend. The final biocidal property was imparted onto the finished fabrics by washing them with a diluted CLOROX® solution containing 0.25% chlorine after each washing circle. Qualitative antibacterial tests were conducted according to AATCC Test Method 147.
In the AATCC Test Method 147, two pieces of chlorinated fabrics with the size of 25 mm×50 mm were placed on a nutrient agar plate which had been inoculated by five streaks of a diluted bacteria solution using a 4 mm inoculating loop. The diluted bacteria solution was prepared by transferring 1.0 milliliter of 24 hour broth culture into 9.0 milliliter of sterile distilled water. The agar plate was incubated at 37° C. for 18-24 hours. The minimum width of inhibition zone along a streak on either side of the test specimen are measured. Table I sets forth the qualitative biocidal evaluations of the finished fabrics with different concentration of the agent Anti-1.

S. aureus [2] = assay: AATCC Test Method 100 quantitative antibacterial test (bacterial reduction); assay type: cell-based, Staphylococcu aureus (ATCC 5368); conditions: for Bacterial Reduction Rates After fifteen washings S. aur. / Bacterial Reduction Rates After five Washings S. aur. / Bacterial Reduction Rates After ten Washings S. aur. / Bacterial Reduction Rates After twenty washings S. aur.: contact time 60 min
Description: AATCC Test Method 100 was adopted in this study. According to this test method, four pieces of staked circular fabric swatches 4.8±0.1 (about one grams) were inoculated with 1.0±0.1 milliliter of inoculum in a 250 milliliter jar. The inoculum was a nutrient broth culture containing over 1.0×10^6 clone forming units (CFU) of organisms. After the swatches were inoculated, they were neutralized by 100 milliliter of a 0.02% sodium thiosulfate solution in the jar. The contact time was the time between inoculation and neutralization. The jar was vigorously shaken and the neutralized solution was diluted in serial. The dilutions, usually 100, 101, and 102, were plated on nutrient agar and incubated for 18-24 hours at 37° C. The number of bacteria recovered from the inoculated finished fabrics was counted and compared with that from untreated fabrics. Six log reduction means the total inactivation of bacteria, and one log reduction means that finished fabrics reduced bacteria counts from 106 CFU to 105 CFU.
Finished fabrics prepared from solutions containing 1%-6% of monomethylol-5,5-dimethylhydantoin following the protocol set forth in Example 1 with pickup rates below 1% have been tested.
Fabrics finished in accordance with the protocol set forth in Example II with Anti-2, i.e., 1,3-dimethylol-5,5-dimethylhydantoin, were also tested with AATCC test method 100, which was briefly described in Example IV. In the tests, a diluted CLOROX® solution containing 0.01 % active chlorine was used to chlorinate the finished fabrics.

[3] = #405 cotton, Anti-1 5%, add-on 1.2%
[4] = #405 cotton, Anti-1 10%, add-on 2.3%
[5] = #405 cotton, Anti-1 15%, add-on 3.1%
[6] = #7402 cotton/polyester 35/65, Anti-1 5%, add-on 0.8%
[7] = #7402 cotton/polyester 35/65, Anti-1 10%, add-on 1.4%
[8] = #7402 cotton/polyester 35/65, Anti-1 15%, add-on 1.6%
[9] = #7402 cotton/polyester 35/65, Anti-1 20%, add-on 2.0%
[10] = Anti-1 1%, #7402, take up 0.14%
[11] = Anti-1 2%, #7402, take up 0.07%
[12] = Anti-1 4%, #7402, take up 0.45%
[13] = Anti-1 6%, #7402, take up 0.70%

CC1(C)NC(=O)N(CO)C1=O [Anti-1, monomethylol-5,5-dimethylhydantoin]
Biocidal Results After 20 Times Washing S. aureus (S. aureus [1]; [3]): >1 mm | Biocidal Results After 50 Times Washing S. aureus (S. aureus [1]; [3]): ˜1 mm | Biocidal Results After 20 Times Washing S. aureus (S. aureus [1]; [4]): >3 mm | Biocidal Results After 50 Times Washing S. aureus (S. aureus [1]; [4]): >1 mm | Biocidal Results After 20 Times Washing S. aureus (S. aureus [1]; [5]): kill all | Biocidal Results After 50 Times Washing S. aureus (S. aureus [1]; [5]): >4 mm | Biocidal Results After 20 Times Washing S. aureus (S. aureus [1]; [6]): >1 mm | Biocidal Results After 50 Times Washing S. aureus (S. aureus [1]; [6]): ˜1 mm | Biocidal Results After 20 Times Washing S. aureus (S. aureus [1]; [7]): >1 mm | Biocidal Results After 50 Times Washing S. aureus (S. aureus [1]; [7]): ˜1 mm | Biocidal Results After 20 Times Washing S. aureus (S. aureus [1]; [8]): kill all | Biocidal Results After 50 Times Washing S. aureus (S. aureus [1]; [8]): >1 mm | Biocidal Results After 20 Times Washing S. aureus (S. aureus [1]; [9]): >4 mm | Biocidal Results After 50 Times Washing S. aureus (S. aureus [1]; [9]): >1 mm | Biocidal results against S. aureus after being activated (S. aureus [1]; Cotton cloth #400, add-on 1.43%): >1.0 mm | Bacterial reduction rates on contact time 0 min S. aureus (S. aureus [2]; Anti-1 1%, #400, take up 0.65%): No | Bacterial reduction rates on contact time 30 min S. aureus (S. aureus [2]; Anti-1 1%, #400, take up 0.65%): 1 log | Bacterial reduction rates on contact time 60 min S. aureus (S. aureus [2]; Anti-1 1%, #400, take up 0.65%): No | Bacterial reduction rates on contact time 0 min S. aureus (S. aureus [2]; [10]): No | Bacterial reduction rates on contact time 30 min S. aureus (S. aureus [2]; [10]): No | Bacterial reduction rates on contact time 60 min S. aureus (S. aureus [2]; [10]): No | Bacterial reduction rates on contact time 0 min S. aureus (S. aureus [2]; Anti-1 2%, #400, take up 0.03%): 1 log | Bacterial reduction rates on contact time 30 min S. aureus (S. aureus [2]; Anti-1 2%, #400, take up 0.03%): 6 log | Bacterial reduction rates on contact time 60 min S. aureus (S. aureus [2]; Anti-1 2%, #400, take up 0.03%): 6 log | Bacterial reduction rates on contact time 0 min S. aureus (S. aureus [2]; [11]): No | Bacterial reduction rates on contact time 30 min S. aureus (S. aureus [2]; [11]): 1 log | Bacterial reduction rates on contact time 60 min S. aureus (S. aureus [2]; [11]): 6 log | Bacterial reduction rates on contact time 0 min S. aureus (S. aureus [2]; Anti-1 4%, #400, take up 0.47%): 6 log | Bacterial reduction rates on contact time 30 min S. aureus (S. aureus [2]; Anti-1 4%, #400, take up 0.47%): 6 log | Bacterial reduction rates on contact time 60 min S. aureus (S. aureus [2]; Anti-1 4%, #400, take up 0.47%): 6 log | Bacterial reduction rates on contact time 0 min S. aureus (S. aureus [2]; [12]): 6 log | Bacterial reduction rates on contact time 30 min S. aureus (S. aureus [2]; [12]): 6 log | Bacterial reduction rates on contact time 60 min S. aureus (S. aureus [2]; [12]): 6 log | Bacterial reduction rates on contact time 0 min S. aureus (S. aureus [2]; Anti-1 6%, #400, take up 0.70%): 6 log | Bacterial reduction rates on contact time 30 min S. aureus (S. aureus [2]; Anti-1 6%, #400, take up 0.70%): 6 log | Bacterial reduction rates on contact time 60 min S. aureus (S. aureus [2]; Anti-1 6%, #400, take up 0.70%): 6 log | Bacterial reduction rates on contact time 0 min S. aureus (S. aureus [2]; [13]): 6 log | Bacterial reduction rates on contact time 30 min S. aureus (S. aureus [2]; [13]): 6 log | Bacterial reduction rates on contact time 60 min S. aureus (S. aureus [2]; [13]): 6 log | Bacterial Reduction Rates After fifteen washings S. aur. (S. aureus [2]; Cl 0.01%, #400, Anti-1 4%): 6 log | Bacterial Reduction Rates After five Washings S. aur. (S. aureus [2]; Cl 0.01%, #400, Anti-1 4%): 6 log | Bacterial Reduction Rates After ten Washings S. aur. (S. aureus [2]; Cl 0.01%, #400, Anti-1 4%): 6 log | Bacterial Reduction Rates After twenty washings S. aur. (S. aureus [2]; Cl 0.01%, #400, Anti-1 4%): 6 log | Bacterial Reduction Rates After fifteen washings S. aur. (S. aureus [2]; Cl 0.01%, #7409, Anti-1 4%): 6 log | Bacterial Reduction Rates After five Washings S. aur. (S. aureus [2]; Cl 0.01%, #7409, Anti-1 4%): 6 log | Bacterial Reduction Rates After ten Washings S. aur. (S. aureus [2]; Cl 0.01%, #7409, Anti-1 4%): 6 log | Bacterial Reduction Rates After twenty washings S. aur. (S. aureus [2]; Cl 0.01%, #7409, Anti-1 4%): 6 log | Bacterial Reduction Rates After fifteen washings S. aur. (S. aureus [2]; Cl 0.1%, #400, Anti-1 4%): 6 log | Bacterial Reduction Rates After five Washings S. aur. (S. aureus [2]; Cl 0.1%, #400, Anti-1 4%): 6 log | Bacterial Reduction Rates After ten Washings S. aur. (S. aureus [2]; Cl 0.1%, #400, Anti-1 4%): 6 log | Bacterial Reduction Rates After twenty washings S. aur. (S. aureus [2]; Cl 0.1%, #400, Anti-1 4%): 0 log | Bacterial Reduction Rates After fifteen washings S. aur. (S. aureus [2]; Cl 0.1%, #7409, Anti-1 4%): 6 log | Bacterial Reduction Rates After five Washings S. aur. (S. aureus [2]; Cl 0.1%, #7409, Anti-1 4%): 6 log | Bacterial Reduction Rates After ten Washings S. aur. (S. aureus [2]; Cl 0.1%, #7409, Anti-1 4%): 6 log
